From patent US20240270762A1, “PENICILLIN-BINDING PROTEIN INHIBITORS” (priority 2021, published 2024)
In brackets after ≈: the same amount, converted by molar mass.

Tests used:
P. aeruginosa CDC-0090 = assay: microbe, parasite or virus in culture; type: cell-based; conditions: Pseudomonas aeruginosa, CDC0090, read-out: Minimum inhibitory concentration, P. aeruginosa CDC-0090
P. aeruginosa CDC-0095 = assay: microbe, parasite or virus in culture; type: cell-based; conditions: Pseudomonas aeruginosa, CDC0095, read-out: Minimum inhibitory concentration, P. aeruginosa CDC-0095
[1] = tested on: P. aeruginosa (ΔmexAB-oprM); assay: Broth microdilution MIC in iron-depleted CAMHB (IDM); type: cell-based; conditions: Pseudomonas aeruginosa; iron-depleted CAMHB (IDM); […]; read-out: Minimum inhibitory concentration, P. aeruginosa ΔmexAB-oprM
[2] = target: T1, PBP3 from Pseudomonas aeruginosa (PAO1) (Pseudomonas aeruginosa, UniProt G3XD46); assay: Bocillin-FL fluorescence polarization competition binding, P. aeruginosa PBP3; conditions: Binding affinity to P. aeruginosa PBP3; fluorescence polarization competition binding assay using Bocillin-FL; read-out: P. aeruginosa PBP3 Potency
T1 construct: made in house
Outline: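 Purified PBP was preincubated with inhibitor (E. coli PBP3 1.5 μM, 30 min; P. aeruginosa PBP3 0.75 μM, A. baumannii PBP3 0.2 μM and PBP1a 1 μM, 15 min), then Bocillin-FL (0.1 μM; 0.05 μM for PBP1a) added and FP read up to 60 min. EC50 = 50% loss of bound probe.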

[3] = tested on: B. thailandensis ATCC 700388; assay: microbe, parasite or virus in culture; type: cell-based; conditions: Burkholderia thailandensis, ATCC700388, read-out: Minimum inhibitory concentration (MIC), B. thailandensis ATCC 700388
P. aeruginosa CDC-0054 = assay: microbe, parasite or virus in culture; type: cell-based; conditions: Pseudomonas aeruginosa, CDC0054, read-out: Minimum inhibitory concentration, P. aeruginosa CDC-0054

T1 sequence (G3XD46 whole entry): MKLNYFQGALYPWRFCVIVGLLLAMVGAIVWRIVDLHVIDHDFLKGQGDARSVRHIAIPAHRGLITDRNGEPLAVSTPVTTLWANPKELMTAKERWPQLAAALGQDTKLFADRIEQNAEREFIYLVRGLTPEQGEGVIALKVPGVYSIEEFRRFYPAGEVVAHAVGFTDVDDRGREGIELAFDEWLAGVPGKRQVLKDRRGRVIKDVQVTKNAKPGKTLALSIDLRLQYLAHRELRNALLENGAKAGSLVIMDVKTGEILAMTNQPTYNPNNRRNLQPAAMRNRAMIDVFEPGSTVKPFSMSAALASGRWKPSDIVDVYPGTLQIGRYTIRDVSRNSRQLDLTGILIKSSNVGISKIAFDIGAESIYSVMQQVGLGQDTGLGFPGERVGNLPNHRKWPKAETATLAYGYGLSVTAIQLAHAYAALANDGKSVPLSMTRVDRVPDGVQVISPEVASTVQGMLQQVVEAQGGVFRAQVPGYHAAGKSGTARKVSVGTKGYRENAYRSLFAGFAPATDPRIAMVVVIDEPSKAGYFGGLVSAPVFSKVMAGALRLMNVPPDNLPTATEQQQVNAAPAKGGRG

Row | SMILES | MIC (P. aeruginosa CDC-0090) [µg/mL] | MIC (P. aeruginosa CDC-0095) [µg/mL] | MIC [1] [µg/mL] | IC50 [2] [µM] | MIC [3] [µg/mL] | MIC (P. aeruginosa CDC-0054) [µg/mL]
1 | O=C(O)c1c(F)ccc2c1OB(O)[C@@H](NC(=O)[C@H](NC(=O)N1CCN(C3CCN(C(=O)Nc4c(F)ccc(O)c4F)CC3)C1=O)c1cc(F)c(O)c(O)c1Cl)C2 (single isomer, unassigned) [Example 454] | 2 to 4 (≈ 2.47 to 4.95 µM) | 2 to 4 (≈ 2.47 to 4.95 µM) | < 1 | < 10 | < 1 | < 1
2 | O=C(O)c1c(F)ccc2c1OB(O)[C@@H](NC(=O)C(NC(=O)N1CCN(C3CCN(C(=O)Nc4cc(O)cc(Cl)c4)CC3)C(=O)C1=O)c1cc(F)c(O)c(O)c1Cl)C2 (stereo partly drawn) [Example 484, (3R)-3-(2-(2-chloro-5-fluoro-3,4-dihydroxyphenyl)-2-(4-(1-((3-chloro-5-hydroxyphenyl)carbamoyl)piperidin-4-yl)-2,3-dioxopiperazine-1-carboxamido)acetamido)-7-fluoro-2-hydroxy-3,4-dihydro-2H-benzo[e][1,2]oxaborinine-8-carboxylic acid] | 2 to 4 (≈ 2.39 to 4.79 µM) | 2 to 4 (≈ 2.39 to 4.79 µM) | < 1 | < 10 | 32 to 64 (≈ 38.3 to 76.6 µM) | 2 to 4 (≈ 2.39 to 4.79 µM)
3 | O=C(O)c1c(F)ccc2c1OB(O)[C@@H](NC(=O)[C@H](NC(=O)N1CCN(C3CCN(C(=O)Nc4cc(F)c(O)c(O)c4Cl)CC3)C1=O)c1ccc(P(=O)(O)O)cc1)C2 (single isomer, unassigned) [Example 500] | 2 to 4 (≈ 2.39 to 4.78 µM) | < 1 | < 1 | < 10 | < 1 | < 1
4 | O=C(O)c1cccc2c1OB(O)[C@@H](NC(=O)C(NC(=O)N1CCN(Cc3cc(F)c(O)c(O)c3Cl)C(=O)C1=O)c1ccc(P(=O)(O)O)cc1)C2 (stereo partly drawn) [Example 164, (3R)-3-(2-(4-(2-chloro-5-fluoro-3,4-dihydroxybenzyl)-2,3-dioxopiperazine-1-carboxamido)-2-(4-phosphonophenyl)acetamido)-2-hydroxy-3,4-dihydro-2H-benzo[e][1,2]oxaborinine-8-carboxylic acid] | < 1 | < 1 | < 1 | < 10 | < 1 | < 1
5 | O=C(O)c1c(F)ccc2c1OB(O)[C@@H](NC(=O)[C@H](NC(=O)N1CCN(C3CCN(C(=O)Nc4cc(F)c(F)c(O)c4F)CC3)C(=O)C1=O)c1cc(F)c(O)c(O)c1Cl)C2 [Example 491, (R)-3-((R)-2-(2-chloro-5-fluoro-3,4-dihydroxyphenyl)-2-(2,3-dioxo-4-(1-((2,4,5-trifluoro-3-hydroxyphenyl)carbamoyl)piperidin-4-yl)piperazine-1-carboxamido)acetamido)-7-fluoro-2-hydroxy-3,4-dihydro-2H-benzo[e][1,2]oxaborinine-8-carboxylic acid] | 2 to 4 (≈ 2.34 to 4.68 µM) | 2 to 4 (≈ 2.34 to 4.68 µM) | < 1 | < 10 | 2 to 4 (≈ 2.34 to 4.68 µM) | < 1
6 | O=C(O)c1c(F)ccc2c1OB(O)[C@@H](NC(=O)C(NC(=O)N1CCN(C3CCN(C(=O)Nc4cc(O)c(F)c(F)c4)CC3)C(=O)C1=O)c1cc(F)c(O)c(O)c1Cl)C2 (stereo partly drawn) [Example 488, (3R)-3-(2-(2-chloro-5-fluoro-3,4-dihydroxyphenyl)-2-(4-(1-((3,4-difluoro-5-hydroxyphenyl)carbamoyl)piperidin-4-yl)-2,3-dioxopiperazine-1-carboxamido)acetamido)-7-fluoro-2-hydroxy-3,4-dihydro-2H-benzo[e][1,2]oxaborinine-8-carboxylic acid] | < 1 | 2 to 4 (≈ 2.39 to 4.78 µM) | < 1 | < 10 | 8 to 16 (≈ 9.56 to 19.1 µM) | < 1
7 | O=C(O)c1c(F)ccc2c1OB(O)[C@@H](NC(=O)[C@H](NC(=O)N1CCN(S(=O)(=O)c3ccc(O)c(O)c3Cl)C1=O)c1ccc(P(=O)(O)O)cc1)C2 [Example 506, (R)-3-((R)-2-(3-((2-chloro-3,4-dihydroxyphenyl)sulfonyl)-2-oxoimidazolidine-1-carboxamido)-2-(4-phosphonophenyl)acetamido)-7-fluoro-2-hydroxy-3,4-dihydro-2H-benzo[e][1,2]oxaborinine-8-carboxylic acid] | < 1 | < 1 | < 1 | < 10 | < 1 | < 1
8 | O=C(O)c1c(F)ccc2c1OB(O)[C@@H](NC(=O)[C@H](NC(=O)N1CCN(C3CCN(C(=O)Nc4ccc(O)c(O)c4Cl)CC3)C1=O)c1ccc(P(=O)(O)O)cc1)C2 (single isomer, unassigned) [Example 497] | 8 to 16 (≈ 9.77 to 19.5 µM) | 32 to 64 (≈ 39.1 to 78.2 µM) | < 1 | < 10 | < 1 | < 1
9 | O=C(O)c1c(F)ccc2c1OB(O)[C@@H](NC(=O)[C@H](NC(=O)N1CCN(C3CCN(C(=O)Nc4cc(O)cc(F)c4)CC3)C1=O)c1cc(F)c(O)c(O)c1Cl)C2 (single isomer, unassigned) [Example 450] | < 1 | < 1 | < 1 | < 10 | < 1 | < 1
10 | O=C(NCCS(=O)(=O)N1CCN(C(=O)N[C@H](C(=O)N[C@H]2Cc3ccc(F)c(C(=O)O)c3OB2O)c2ccc(P(=O)(O)O)cc2)C1=O)c1ccc(O)c(O)c1Cl [Example 167, (R)-3-((S)-2-(3-((2-(2-chloro-3,4-dihydroxybenzamido)ethyl)sulfonyl)-2-oxoimidazolidine-1-carboxamido)-2-(4-phosphonophenyl)acetamido)-7-fluoro-2-hydroxy-3,4-dihydro-2H-benzo[e][1,2]oxaborinine-8-carboxylic acid] | > 128 | > 128 | > 128 | 50 to 250 | > 128 | > 128
11 | O=C(O)c1c(F)ccc2c1OB(O)[C@@H](NC(=O)[C@H](NC(=O)N1CCN(C3CCN(C(=O)c4ccc(F)c(O)c4Cl)CC3)C1=O)c1cc(F)c(O)c(O)c1Cl)C2 [Example 438, (R)-3-((R)-2-(3-(1-(2-chloro-4-fluoro-3-hydroxybenzoyl)piperidin-4-yl)-2-oxoimidazolidine-1-carboxamido)-2-(2-chloro-5-fluoro-3,4-dihydroxyphenyl)acetamido)-7-fluoro-2-hydroxy-3,4-dihydro-2H-benzo[e][1,2]oxaborinine-8-carboxylic acid] | 2 to 4 (≈ 2.47 to 4.94 µM) | < 1 | < 1 | < 10 | < 1 | < 1
12 | O=C(O)c1c(F)ccc2c1OB(O)[C@@H](NC(=O)C(NC(=O)N1CCN(C3CCN(C(=O)Nc4ccc(F)c(O)c4)CC3)C(=O)C1=O)c1cc(F)c(O)c(O)c1Cl)C2 (stereo partly drawn) [Example 480, (3R)-3-(2-(2-chloro-5-fluoro-3,4-dihydroxyphenyl)-2-(4-(1-((4-fluoro-3-hydroxyphenyl)carbamoyl)piperidin-4-yl)-2,3-dioxopiperazine-1-carboxamido)acetamido)-7-fluoro-2-hydroxy-3,4-dihydro-2H-benzo[e][1,2]oxaborinine-8-carboxylic acid] | 2 to 4 (≈ 2.44 to 4.88 µM) | < 1 | < 1 | < 10 | 2 to 4 (≈ 2.44 to 4.88 µM) | < 1
13 | O=C(O)c1c(F)ccc2c1OB(O)[C@@H](NC(=O)[C@H](NC(=O)N1CCN(C3CCN(C(=O)Nc4cc(O)cc(O)c4)CC3)C1=O)c1cc(F)c(O)c(O)c1Cl)C2 [Example 456, (R)-3-((R)-2-(2-chloro-5-fluoro-3,4-dihydroxyphenyl)-2-(3-(1-((3,5-dihydroxyphenyl)carbamoyl)piperidin-4-yl)-2-oxoimidazolidine-1-carboxamido)acetamido)-7-fluoro-2-hydroxy-3,4-dihydro-2H-benzo[e][1,2]oxaborinine-8-carboxylic acid] | < 1 | < 1 | < 1 | < 10 | < 1 | < 1
14 | O=C(O)c1c(F)ccc2c1OB(O)[C@@H](NC(=O)[C@H](NC(=O)N1CCN(C3CCN(C(=O)c4cc(O)cc(O)c4)CC3)C1=O)c1cc(F)c(O)c(O)c1Cl)C2 (single isomer, unassigned) [Example 442] | < 1 | < 1 | < 1 | < 10 | < 1 | < 1
15 | O=C(O)c1c(F)ccc2c1OB(O)[C@@H](NC(=O)C(NC(=O)N1CCN(C3CCN(C(=O)Nc4cc(O)ccc4F)CC3)C(=O)C1=O)c1cc(F)c(O)c(O)c1Cl)C2 (stereo partly drawn) [Example 479, (3R)-3-(2-(2-chloro-5-fluoro-3,4-dihydroxyphenyl)-2-(4-(1-((2-fluoro-5-hydroxyphenyl)carbamoyl)piperidin-4-yl)-2,3-dioxopiperazine-1-carboxamido)acetamido)-7-fluoro-2-hydroxy-3,4-dihydro-2H-benzo[e][1,2]oxaborinine-8-carboxylic acid] | 2 to 4 (≈ 2.44 to 4.88 µM) | < 1 | < 1 | < 10 | < 1 | < 1
